Measured values from patent US20240425484A1, “INHIBITORS OF TYK2” (Atomwise Inc., priority 2023, published 2024).

What was measured:
[1] = Mouse pharmacokinetic study, oral administration; assay type: in vivo; conditions: male, mouse plasma, PO at 5 mg/kg; for half-life: read-out: Half-life t1/2; for Cmax: read-out: Maximum plasma concentration Cmax; for AUC(0-inf): read-out: Total systemic exposure AUCinf
Description: The following example describes the methods used to evaluate the pharmacokinetics of TYK2 inhibitors in vivo following dosing of a compound of the invention.
The pharmacokinetics of test compounds were evaluated in either male CD-1 mice or male C57BL/6 mice when administered by oral gavage and IV bolus injection. The animals were allowed free access to food and water before administration. The plasma samples were analyzed by LC-MS/MS and the concentration of test compound at each time point was determined by linear regression. Pharmacokinetic parameters were calculated from the plasma concentrations by non-compartmental modeling using WinNonlin 8.2.
Oral composition. To prepare a pharmaceutical composition for oral delivery, the test articles described herein were dissolved in DMSO and then mixed with necessary volume of PEG400 followed by 0.9% sterile saline or 5% dextrose in water or 5% Kolliphor HS 15 in saline to provide the final concentrations of 0.5 mg/mL or 1 mg/mL (Table 8). The resultant mixtures were suitable for oral administration.
The PK parameters measured in mouse plasma after treatment with TYK2 inhibitor compounds via PO (oral administration) at 5 mg/kg are summarized below in Tables 9-11.

[2] = Brain exposure pharmacokinetic study in Sprague Dawley rats; assay type: in vivo, rat; conditions: male Sprague Dawley rats, oral gavage 10 mg/kg, plasma, CSF
Description: The brain exposure of exemplary compounds, e.g., 1, 2, and 4 were evaluated in male Sprague Dawley rats after oral gavage administration at 10 mg/kg. The formulation was 5% DMSO+10% PEG400 in saline. Rats were fasted overnight with food returned 4 hours post-dose. CSF was collected by direct needle puncture into the cisterna magna.
(§1) For both rat and mouse studies, brain tissue was washed with 3 volumes of saline prior to homogenization. Brain tissue was homogenized with 3 volumes (v/w) of phosphate buffered saline. Plasma, brain homogenate, and CSF samples (rat only) were analyzed by LC-MS/MS and the concentration of test compound at each time point was determined by linear regression.
(§2) Pharmacokinetic parameters were calculated from the plasma, brain, and CSF concentrations by non-compartmental modeling using WinNonlin 8.2.

TYK2-JH2 = target: T1, TYK2-JH2 (Homo sapiens, UniProt P29597); test: TYK2-JH2 HTRF binding assay (ligand efficiency); conditions: calculated (Equation 1) from IC50 of the TYK-JH2 binding assay
T1 construct: TYK JH2 enzyme mix (ChemPartner: CP20210818A-BV); purchased ChemPartner CP20210818A-BV
T1 sequence (P29597 589-875 limits assumed): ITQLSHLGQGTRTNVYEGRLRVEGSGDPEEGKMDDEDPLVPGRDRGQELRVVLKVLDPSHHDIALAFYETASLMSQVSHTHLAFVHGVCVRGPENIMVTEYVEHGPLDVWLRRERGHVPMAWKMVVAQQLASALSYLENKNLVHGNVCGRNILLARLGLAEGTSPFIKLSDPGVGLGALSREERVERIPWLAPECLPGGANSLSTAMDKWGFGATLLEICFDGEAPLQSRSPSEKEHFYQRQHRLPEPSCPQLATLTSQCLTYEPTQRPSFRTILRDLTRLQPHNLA
Description: The following example describes the TYK2-JH2 HTRF binding assay used to determine the ligand efficiency of the TYK2 inhibitors.
To calculate ligand efficiency, Equation 1 is applied: […]
in which IC50 comes from the binding assay used to determine compound potency.
TYK JH2 enzyme mix (ChemPartner: CP20210818A-BV), tracer (ChemPartner: CP-0029472-051) and mAb Anti-6HIS Tb cryptate Gold (Cisbio: Cat No. 61HI2TLA) mix were prepared in assay buffer (10 mM MgCl2, 20 mM HEPES pH 7.5, 0.01% Triton X-100, 1 mM DTT). Compounds diluted in DMSO (Final Concentrations 0.1 to 0.000005 [μM]) and enzyme mix (0.5 nM Final Concentration) were added to 384 well plates, briefly centrifuged and incubated at room temperature for 10 minutes. After incubation, tracer mix (Tracer-35 nM final concentration); (MAb Anti-6HIS Tb cryptate Gold-0.5X final)) was added, briefly centrifuged then incubate at room temperature 60 minutes. After incubation, plates were read by Envision TR-FRET (Ex340/Em495/520) protocol (PerkinElmer-Envision 2104 multilabel plate reader).

[3] = Brain exposure pharmacokinetic study in C57BL/6 mice; assay type: in vivo, mouse; conditions: male C57BL/6 mice, oral gavage 5 mg/kg, plasma
Description: The brain exposure of 18 was evaluated in male C57BL/6 mice after oral gavage administration at 5 mg/kg. The formulation was 10% DMSO+40% PEG400 in saline. Mice were provided free access to food and water without fasting. Terminal sample collection of plasma and brain tissue were collected at […], 0.25, 0.5, 1, 2, and 4 hours post-dose with n=3 at each timepoint.
as §1, §2

CC(c1ccc(Nc2cc(Nc3ncccc3S(C)(=O)=O)ncn2)nc1C(F)(F)F)N1CC2(COC2)C1 (stereo in doubt) [Compound 11, (R)—N^4-(5-(1-(2-oxa-6-azaspiro[3.3]heptan-6-yl)ethyl)-6-(trifluoromethyl)pyridin-2-yl)-N^6-(3-(methylsulfonyl)pyridin-2-yl)pyrimidine-4,6-diamine]
half-life [1]: > 90 min | Cmax [1]: 800 to 1500 ng/mL | AUC(0-inf) [1]: > 2000 ng·h/mL

C[C@@H](c1ccc(Nc2cc(Nc3ncc(F)cc3S(C)(=O)=O)ncn2)nc1)N1CC2(COC2)C1 [Compound 2, (S)—N^4-(5-(1-(2-oxa-6-azaspiro[3.3]heptan-6-yl)ethyl)pyridin-2-yl)-N^6-(5-fluoro-3-(methylsulfonyl)pyridin-2-yl)pyrimidine-4,6-diamine]
Brain Kpu, u [2]: † (†<0.1 u) | Ligand Efficiency (TYK2-JH2): ††† (†††: >0.39) | half-life [1]: 60 to 90 min | Cmax [1]: > 1500 ng/mL | AUC(0-inf) [1]: > 2000 ng·h/mL

Cc1cccc(Nc2cc(Nc3ncccc3S(C)(=O)=O)ncn2)n1 [Compound 18, N^4-(6-methylpyridin-2-yl)-N^6-(3-(methylsulfonyl)pyridin-2-yl)pyrimidine-4,6-diamine]
Brain Kpu, u [3]: ††† (††† >0.2 u) | Ligand Efficiency (TYK2-JH2): ††† (†††: >0.39)

Cc1nc(Nc2cc(Nc3ncccc3S(C)(=O)=O)ncn2)ccc1NC1(C)COC1 [Compound 6, N^4-(6-methyl-5-((3-methyloxetan-3-yl)amino)pyridin-2-yl)-N^6-(3-(methylsulfonyl)pyridin-2-yl)pyrimidine-4,6-diamine]
Ligand Efficiency (TYK2-JH2): ††† (†††: >0.39) | half-life [1]: < 60 min | Cmax [1]: > 1500 ng/mL | AUC(0-inf) [1]: > 2000 ng·h/mL

CS(=O)(=O)c1cccnc1Nc1cc(Nc2ccc3c(n2)CCCC3N2CC3(COC3)C2)ncn1 (stereo in doubt) [Compound 5, (R)—N^4-(5-(2-oxa-6-azaspiro[3.3]heptan-6-yl)-5,6,7,8-tetrahydroquinolin-2-yl)-N^6-(3-(methylsulfonyl)pyridin-2-yl)pyrimidine-4,6-diamine]
half-life [1]: > 90 min | Cmax [1]: > 1500 ng/mL | AUC(0-inf) [1]: > 2000 ng·h/mL

Cc1nc(Nc2cc(Nc3ncccc3S(C)(=O)=O)ncn2)ccc1[C@H](C)N1CC2(COC2)C1 (stereo in doubt) [Compound 12, N^4-(5-(1-(2-oxa-6-azaspiro[3.3]heptan-6-yl)ethyl)-6-methylpyridin-2-yl)-N^6-(3-(methylsulfonyl)pyridin-2-yl)pyrimidine-4,6-diamine]
Ligand Efficiency (TYK2-JH2): ††† (†††: >0.39) | half-life [1]: < 60 min | Cmax [1]: > 1500 ng/mL | AUC(0-inf) [1]: 1000 to 2000 ng·h/mL

C[C@H]1CN(C2CC2)CCN1c1ccc(Nc2cc(Nc3ncccc3S(C)(=O)=O)ncn2)nc1 [Compound 8, (S)—N^4-(5-(4-cyclopropyl-2-methylpiperazin-1-yl)pyridin-2-yl)-N^6-(3-(methylsulfonyl)pyridin-2-yl)pyrimidine-4,6-diamine]
Ligand Efficiency (TYK2-JH2): ††† (†††: >0.39) | half-life [1]: > 90 min | Cmax [1]: 800 to 1500 ng/mL | AUC(0-inf) [1]: 1000 to 2000 ng·h/mL

Cc1ccnc(Nc2cc(Nc3ccccc3S(C)(=O)=O)ncn2)c1 [Compound 44, N^4-(4-methylpyridin-2-yl)-N^6-(2-(methylsulfonyl)phenyl)pyrimidine-4,6-diamine]
Ligand Efficiency (TYK2-JH2): ††† (†††: >0.39) | half-life [1]: > 90 min | Cmax [1]: < 800 ng/mL | AUC(0-inf) [1]: < 1000 ng·h/mL

C[C@@H](c1ccc(Nc2cc(Nc3ncccc3S(C)(=O)=O)ncn2)nc1)N1CC2(COC2)C1 [Compound 1, (S)—N^4-(5-(1-(2-oxa-6-azaspiro[3.3]heptan-6-yl)ethyl)pyridin-2-yl)-N^6-(3-(methylsulfonyl)pyridin-2-yl)pyrimidine-4,6-diamine]
Brain Kpu, u [2]: †† (††0.1-0.2 u) | Ligand Efficiency (TYK2-JH2): ††† (†††: >0.39) | half-life [1]: 60 to 90 min | Cmax [1]: < 800 ng/mL | AUC(0-inf) [1]: 1000 to 2000 ng·h/mL

Cc1cccc(Nc2cc(Nc3ccccc3S(C)(=O)=O)nc(N)n2)n1 [Compound 57, N^4-(6-methylpyridin-2-yl)-N^6-(2-(methylsulfonyl)phenyl)pyrimidine-2,4,6-triamine]
Ligand Efficiency (TYK2-JH2): ††† (†††: >0.39)

C[C@@H](c1ccc(Nc2cc(Nc3ncc(Cl)cc3S(C)(=O)=O)ncn2)nc1)N1CC2(COC2)C1 [Compound 14, (S)—N^4-(5-(1-(2-oxa-6-azaspiro[3.3]heptan-6-yl)ethyl)pyridin-2-yl)-N^6-(5-chloro-3-(methylsulfonyl)pyridin-2-yl)pyrimidine-4,6-diamine]
Ligand Efficiency (TYK2-JH2): ††† (†††: >0.39)

CS(=O)(=O)c1ccccc1Nc1cc(Nc2ccc(NC3COC3)cn2)ncn1 [Compound 80, N^4-(2-(methylsulfonyl)phenyl)-N^6-(5-(oxetan-3-ylamino)pyridin-2-yl)pyrimidine-4,6-diamine]
Ligand Efficiency (TYK2-JH2): † (†: <0.37)

C[C@@H](c1ccc(Nc2cc(Nc3ncccc3S(C)(=O)=O)ncn2)nc1)N(C)C [Compound 4, (S)—N^4-(5-(1-(dimethylamino)ethyl)pyridin-2-yl)-N^6-(3-(methylsulfonyl)pyridin-2-yl)pyrimidine-4,6-diamine]
Brain Kpu, u [2]: ††† (††† >0.2 u) | Ligand Efficiency (TYK2-JH2): ††† (†††: >0.39) | half-life [1]: 60 to 90 min | Cmax [1]: < 800 ng/mL | AUC(0-inf) [1]: < 1000 ng·h/mL

Cc1cccc(Nc2cc(Nc3ccccc3NS(C)(=O)=O)ncn2)n1 [Compound 53, N-(2-(6-(6-methylpyridin-2-ylamino)pyrimidin-4-ylamino)phenyl) methanesulfonamide]
Ligand Efficiency (TYK2-JH2): ††† (†††: >0.39)
